# From US20110301079A1, “NEUROMEDIN U RECEPTOR AGONISTS AND USES THEREOF” (Instituto di Ricerche di Biologia Molecolare P. Angeletti …, priority 2007, published 2011)
# How the values were obtained:
# [1] = Pharmacokinetic analysis using the FLIPR-based bioassay of plasma; format: in vivo; settings: mice, 10 mg/kg subcutaneously, FIG. 5
# Procedure: Peptide exposure levels in dosed animals were measured using the bioassay. Animals were dosed subcutaneously and plasma was collected at various time points post-dose. The bioassay is a FLIPR-based assay that measures the concentration of peptide in plasma from animals dosed with hNMU-25 or NMS. The assay is run essentially as described above (Example 2) with the following modifications: sample preparation prior to the assay is performed on ice to minimize degradation of plasma samples. The assay was run with 4% plasma as the final concentration. A three-point titration was done with the dosed plasma and tested on human NMUR1-expressing cell lines using FLIPR. The response after sample addition was taken as the maximum fluorescence units minus the fluorescence immediately prior to stimulation for each well. In addition to a three-point titration of dosed plasma samples, a 16-point titration of the peptide (hNMU-25 or NMS) was run in 4% plasma (naive plasma) to serve as the standard. The concentration of the peptide in plasma was calculated based on extrapolations from the appropriate standard using the GraphPad Prism software.
# In the experiment, the animals were dosed subcutaneously with 10 mg/kg of human NMU-25 or human NMS and plasma was collected at various time points post dose and measured in the Bioassay. […]
# [2] = test system: wild-type, Nmur1 knockout, Nmur2 knockout and Nmur1/Nmur2 double knockout mice; test: Acute feeding study in wild-type and Nmur knockout mice; format: in vivo
# Procedure: Ad libitum fed male diet-induced obese mice obtained from Taconic Farms were weighed and dosed either i.p. or s.c. with NMS or NMU at about 30 minutes prior to the onset of the dark phase of the light cycle and provided with a pre-weighed aliquot of high fat diet (D12492: 60% kcal from fat: Research Diets, Inc.), which was then weighed two and 18 hours after the onset of the initial dark phase. Mice were weighed at the 18 hour (overnight) time point.
# NMUR1 knockout (Nmur1−/−) mice were generated using standard homologous recombination techniques. Nmur1 mice were subsequently transferred to Taconic Farms where they were either maintained on a 75% C57BL/6×25% 129S6/SvEv mixed genetic background or backcrossed 6 generations to C57BL/6. NMUR2 knockout (Nmur2−/−) mice were licensed from Deltagen Inc., San Mateo, Calif. and subsequently transferred to Taconic Farms were they were either maintained on a 75% C57BL/6×25% 129/OlaHsd mixed genetic background or backcrossed for 7 generations to C57BL/6. NMUR1 and NMUR2 double knockout (Nmur1&2−/−) mice were generated by crossing N6 Nmur1−/− mice to N7 Nmur2−/− mice. Mice were individually housed in Tecniplast cages in a conventional SPF facility. Mice were initially maintained on a regular chow diet and then early in their life were switched to a high fat diet (D12492) with ad libitum access to water in a 12-h light/12-h dark cycle.
# The anorectic effects of NMS1 were mediated by both the NMUR1 and NMUR2 receptors. […] Effects on food intake (FIG. 9A) and body weight (FIG. 9B) are shown.
# [3] = test system: dog NMUR1-ATG; test: FLIPR calcium mobilization assay, dog NMUR1-ATG cell line; format: cell-based
# Excerpt: Human, mouse or rat cDNAs encoding NMUR1 or NMUR2 (as described in Howard et al. Nature 406: 70-74 (2000) were subcloned in pcDNA5 (Invitrogen) and transfected into FLP-In CHO cells and HEK-293 FLP-In cells purchased from Invitrogen (Carlsbad, Calif.) using lipofectamine (Invitrogen). The Flp-In system allows integration and expression of a particular gene of interest at a specific genomic location utilizing the Flp recombinase from yeast. The transfected cells were selected by growth in medium containing 200 μg/mL hygromycin (Invitrogen). Populations were frozen at early passage numbers, and these stocks were used for further studies. Stable clones that expressed the mRNAs were identified functionally by FLIPR as well as by RT-PCR. […] Two different rodent NMUR1 cell lines were thus generated: one with the codon as predicted from the genomic databases and another cell line with an engineered methionine (ATG) as the start codon. The dog NMU receptors were also cloned from intestine RNA (NMUR1) and brain (NMUR2) and stable cell lines were generated as used for the human and rodent cell lines. […] To ensure high levels of expression in a heterologous system, a dog NMUR1 cell line was generated that contains an ATG as the start codon. Additionally, stable cell lines expressing the human receptors were generated in HEK-293/aeq 17 cells which stably express the aequorin gene under the CMV promoter. The human NMUR2 cDNA was cloned into pcDNA3.1 and human NMUR1 was subcloned into pIRES-puro (Clontech, Mountain View, Calif.), after transfection cells were selected in media containing G418 and either hygromycin (NMUR2) or puromycin (NMUR1).
# The NMU receptors signal primarily through Gαq/11 proteins; therefore calcium mobilization assays can be utilized for functional activity.
# Stable cell lines expressing human and or rodent NMUR1 or human NMUR2 receptors are plated at a density of 12,000 cells per well overnight on poly-lysine coated 384-well black-walled plates. The following day, the media is removed from the plates and the cells were subsequently loaded with Fluo-3 (Molecular Probes), a calcium sensitive dye, diluted in FLIPR buffer (1× Hank's buffered saline containing 20 mM HEPES, 0.1% BSA, 2.5 mM probenecid (Sigma) and 1.6 mM TR40). All reagents are from Invitrogen unless otherwise noted. Peptide stocks are resuspended in DMSO at a stock concentration of 2 mM and diluted in FLIPR buffer on the day of the experiment to a 4 μM working stock solution.
# After a 90 minute incubation at room-temperature, cell plates are loaded onto a FLIPR (Molecular Devices) to monitor cellular fluorescence (excitation=488 nm; emission=540 nm) before and after compound/peptide addition. Eight to twelve point dose responses are tested on NMUR-expressing cell lines using FLIPR with 1 μM peptide as the highest dose. The response after peptide addition is taken as the maximum fluorescence units minus the fluorescence immediately prior to stimulation for each well. EC50 values are calculated using GraphPad Prism (San Diego, Calif.) software.
# Percent activity refers to the maximum response at 1 μM compared to the human NMU-25 response at the same concentration.
substance,measurement,setting,value
"H-ILQRGSGTAAVDFTKKDHTATWGRPFFLFRPRN-NH2 [NMS, reference compound]",metabolic stability in vivo compared to NMU,[1],greater metabolic stability
same,food intake,"[2]; Nmur1 knockout mice, highest dose tested",modest but significant effect
same,food intake,"[2]; acute peripheral administration, Nmur1 knockout mice",not in Nmur1 knockout mice
same,food intake,"[2]; acute peripheral administration, Nmur2 knockout mice",significantly reduced
same,food intake,"[2]; acute peripheral administration, wild-type mice",significantly reduced
same,EC50,[3]; FLIPR,4.4 nM
same,% Activity,[3]; maximum response at 1 μM compared to the human NMU-25 response at the same concentration,100%
